The values that follow come from patent US6130232A, “Substituted piperidine derivatives as muscarinic M3 receptor antagonists” (Banyu Pharmaceutical Coaltd, priority 1995, dated 2000).

The target in assay [1] is T1, muscarinic M2 receptor (Rattus norvegicus, UniProt P10980).
T1 construct: the membrane preparations of the heart were used as the test specimens; from tissue; host or cells: rat heart membranes (male SD rats)
T1 sequence (P10980 1-466): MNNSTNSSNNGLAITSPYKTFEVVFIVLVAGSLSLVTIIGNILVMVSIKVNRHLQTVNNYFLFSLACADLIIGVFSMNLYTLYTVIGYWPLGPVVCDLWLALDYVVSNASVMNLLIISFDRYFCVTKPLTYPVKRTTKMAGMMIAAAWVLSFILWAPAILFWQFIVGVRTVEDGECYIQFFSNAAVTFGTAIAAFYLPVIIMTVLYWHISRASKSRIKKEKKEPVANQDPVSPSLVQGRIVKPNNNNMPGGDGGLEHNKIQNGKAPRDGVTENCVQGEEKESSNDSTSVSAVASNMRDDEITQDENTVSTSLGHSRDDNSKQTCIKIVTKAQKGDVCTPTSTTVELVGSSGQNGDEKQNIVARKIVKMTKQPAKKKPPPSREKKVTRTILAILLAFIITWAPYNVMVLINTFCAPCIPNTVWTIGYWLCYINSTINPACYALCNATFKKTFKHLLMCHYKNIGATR
The experiment in a line: Inhibition of M2 muscarinic receptor binding ([3H]-N-methylscopolamine, heart membrane). To be noted: 0.2 nM [3H]-N-methylscopolamine. As to the method: Hereinafter action of compounds of the present invention to inhibit binding to muscarinic receptors and their in vitro and in vivo antagonism to muscarinic receptors are described, to concretely indicate utility of the present invention. As the labelling ligand for M1 muscarinic receptor, [^3 H]-telenzepine was used and as that for M2 and M3 muscarinic receptors, [^3 H]-N-methyl-scopolamine was used, and dissociation constants (Ki) were calculated from concentration of each of the tested compounds to inhibit binding of the labelling ligand by 50% (IC50).
(§1) Male SD strain rats weighing each 250 g-350 g [Japan Charles River K.K.] were sacrificed and their cerebral cortices, hearts and lacrimal glands were extirpated. The isolated organs were homogenized with Polytron (setting: 5) in an ice-cooled, 5-times diluted buffer solution (pH 7.4) containing 50 mM tris-hydrochloric acid, 5 mM magnesium chloride, 1 mM ethylenediamine-tetraacetic acid trisodium salt and 20% sucrose, followed by 15 minutes' centrifuge at 3,000×g and 4° C. After filtering the supernatant through gauze cloth, the filtrate was further subjected to an ultracentrifugation at 100,000×g at 4° C. for 45 minutes. The resultant precipitate was suspended in an ice-cooled buffer solution (pH 7.4, hereafter abbreviated as tris buffer) containing 50 mM tris-hydrochloric acid and 5 mM magnesium chloride. The suspension was subjected to an ultracentrifugation at 100,000×g at 4° C. for 45 minutes. The resultant precipitate was suspended in tris buffer at a concentration of 50 mg/ml and kept at -80° C. until the time of use. It was melted at the time of use in the binding inhibition tests.
These tests were performed according to a modification of the method of Hargreaves et al. (Br. J. Pharmacol. 107: pp. 494-501, 1992). […] After drying the filter at 50° C. for an hour, a scintillator (Microscinti O: Packard Instrument Co., Inc.) was added and the radioactivity of the [^3 H]-telenzepine which was adsorbed onto the filter was measured with a microplate scintillation counter (Top Count: Packard Instrument Co., Inc.). Non-specific binding of [^3 H]-telenzepine to the receptors was determined under addition of 10 μM pirenzepine. […]
The test was conducted in the manner similar to above 2) M1 muscarinic receptor binding inhibition test, except that the membrane preparations of the heart were used as the test specimens and 0.2 nM [^3 H]-N-methylscopolamine ([^3 H]-N-Methylscopolamine, 84 Ci/mmol, New England Nuclear) was used as the labelling ligand. Non-specific binding of [^3 H]-N-methylscopolamine to the receptors was determined under addition of 1 μM N-methylscopolamine.

The target in assay [2] is T2, bladder M3 receptor (Rattus norvegicus, UniProt P08483).
T2 construct: the urinary bladder was isolated; from tissue; host or cells: isolated rat urinary bladder (male SD rats)
T2 sequence (P08483 whole entry): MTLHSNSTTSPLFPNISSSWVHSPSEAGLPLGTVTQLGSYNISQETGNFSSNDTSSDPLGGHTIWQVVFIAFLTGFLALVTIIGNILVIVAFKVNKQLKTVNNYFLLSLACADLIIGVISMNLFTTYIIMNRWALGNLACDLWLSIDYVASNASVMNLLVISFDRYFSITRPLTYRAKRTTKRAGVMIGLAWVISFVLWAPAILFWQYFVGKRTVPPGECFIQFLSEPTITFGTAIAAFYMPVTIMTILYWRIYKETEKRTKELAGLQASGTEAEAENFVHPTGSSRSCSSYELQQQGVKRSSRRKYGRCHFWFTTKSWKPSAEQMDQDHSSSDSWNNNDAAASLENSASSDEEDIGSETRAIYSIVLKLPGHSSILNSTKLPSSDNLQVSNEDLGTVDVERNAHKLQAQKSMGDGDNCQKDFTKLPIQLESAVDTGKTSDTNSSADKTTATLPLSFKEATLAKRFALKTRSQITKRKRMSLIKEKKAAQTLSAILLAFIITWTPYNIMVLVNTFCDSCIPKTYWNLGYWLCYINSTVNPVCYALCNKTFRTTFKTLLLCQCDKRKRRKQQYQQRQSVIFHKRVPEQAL
The experiment in a line: Antagonism to bladder M3 receptor in isolated rat urinary bladder. Conditions: agonist carbachol.
Experimental: Male SD strain rats (200-300 g) were sacrificed by exsanguination and the urinary bladder was isolated. The bladders were cut into four longitudinal unfold sections, to form about 10 mm-long preparations. Each preparation was suspended in a Magnus tube filled with 5 ml of Krebs-Henseleit solution (gassed with 95% O2 -5% CO2 at 32° C.) at an initial tension of 0.5 g. The tension in the preparation was isometrically recorded. After an hour's equilibration, the preparation was contracted twice with 10^-4 M carbachol, the second contraction being recorded as the reference contraction. After the preparation was washed with fresh solution and recovered to the base line, a test compound was administered thereto (or no treatment was given). Ten minutes later, carbachol (10^-8 to 10^-3 M) was cumulatively administered to the preparation from at a low concentration to three-fold increased dose to obtain a dose-response curve. The dose-response curve was plotted by expressing responses as percentages based on the reference contraction of the preparation which was set to be 100%. The antagonistic potency (KB value) of the test compound was determined from the degree of shift in the dose-response curve resulted from the treatment with the test compound.

Assay [3] addresses T3, ileum M3 receptor (Rattus norvegicus, UniProt P08483).
T3 construct: the ileum was isolated and formed into 2 cm-long preparations; from tissue; host or cells: isolated rat ileum (male SD rats)
In words: Antagonism to intestinal tract M3 receptor in isolated rat ileum. Conditions: agonist carbachol, read-out: KB ileus M3. As for the experimental part: Male SD strain rats (200-300 g) were sacrificed by exsanguination, and the ileum was isolated and formed into 2 cm-long preparations. […] Tension in the preparation was isotonically recorded. After an hour's equilibration, the preparation was contracted twice with 10^-6 M carbachol, the second contraction being recorded as the reference contraction. After the preparation was washed with fresh solution and recovered to the base line, a test compounds was administered thereto (or no treatment was given). Ten minutes later, carbachol (10^-8 to 10^-3 M) was cumulatively administered to the preparation from at a low concentration to three-fold increased dose to obtain a dose-response curve. The dose-response curve was plotted by expressing responses as percentages based on the reference contraction of the preparation which was set to be 100%.

For assay [4], the target named is T4, right atrium M2 receptor (Rattus norvegicus, UniProt P10980).
T4 construct: the right atrium was isolated; from tissue; host or cells: isolated rat right atrium (male SD rats)
T4 sequence (P10980 1-466): T1 sequence (P10980 1-466)
In words: Antagonism to M2 receptor in isolated rat right atrium. Conditions: agonist carbachol. As for the experimental part:
This test was conducted following the method of Wess, et al. [British Journal of Pharmacology, Vol. 102, pp. 246-250]. Male SD strain rats (weighing 200-300 g) were sacrificed by exsanguination and the right atrium was isolated. […] The heart rate was recorded with a heart rate counter. After the preparation was equilibrated for 30 minutes, carbachol (10^-9 to 10^-6 M) was cumulatively administered from a low concentration to three-fold increased doses. Thus, a decrease in heart rate was measured to obtain a control dose-response curve. After the preparation was washed with fresh solution to recover the heart rate, a test compound was administered thereto. Ten minutes later, carbachol was cumulatively administered again. Carbachol-induced responses were expressed as percentages based on the heart rate before administration of carbachol as 100%.

Assay [5] concerns bradycardia. The experiment in a line: Rat bradycardia (acetylcholine-induced). It is filed as in vivo. To be noted: for ED50: iv, 5 min, rat, i.v., acetylcholine 10 μg/kg, read-out: bradycardia ID50; for selectivity of bronchodilation over bradycardiac response, in words: in vivo, Table 3. As for the experimental part: Eight- to eleven-weeks-old Sprague-Dawley strain rats (300-400 g) were anesthetized by intraperitoneal injection of urethane (750 mg/kg) and α-chloralose (37.5 mg/kg), and their right carotid artery, left juglar vein and airway of the rat were cannulated. […] After stable bradycardia induced by intravenous administration of acetylcholine (10 μg/kg) was observed, a test compound was intravenously administered. Five minutes later, bradycardia was induced once again with acetylcholine administration. The inhibition ratio to the bradyeardia obtained before the administration of the test compound was calculated, and the dose of the test compound which inhibited the bradycardia obtained before the drug administration by 50% was recorded as ID50 value.

Assay [6] addresses T5, airway M3 receptor (Rattus norvegicus, UniProt P08483).
T5 construct: the trachea was isolated; from tissue; host or cells: isolated rat trachea (male SD rats)
In words: Antagonism to airway M3 receptor in isolated rat trachea. Conditions: agonist carbachol.
Experimental: Male SD strain rats (200-300 g) were sacrificed by exsanguination and the trachea was isolated. Ring segments (2 mm wide) were cut out from the trachea and cut transversely at the anterior cartilage part to make open ring preparations. Each preparation was suspended in a Magnus tube filled with 5 ml of Krebs-Henseleit solution (gassed with 95% O2 -5% CO2, at 37° C.) at an initial tension of 1.0 g and a resting tension of 0.6 g. The tension of the preparation was recorded isometrically. After being equilibrated for an hour, the preparation was made to contract twice by treatment with 10^-4 M carbachol, and the second contraction induced by carbachol was used as the reference contraction. After the preparation was washed with fresh solution to be recovered to the base line, a test compound was administered thereto (or no treatment was given). Ten minutes later, carbachol (10^-8 to 10^-3 M) was cumulatively administered in three-fold increased doses to obtain a dose-response curve. The dose-response curve was plotted by expressing responses as percentages based on the reference contraction of the preparation as 100%. The antagonistic potency (KB value) of the test compound was determined from the degree of shift of the dose-response curve obtained by treatment with the test compound.

Assay [7] concerns airway resistance increase. The experiment in a line: Airway resistance enhancement in rats (acetylcholine-induced). It is filed as in vivo, rat. To be noted: for ED50: iv, 5 min, rat, i.v., acetylcholine 50 μg/kg, read-out: airway constriction ID50; for activities in both airway constriction and bradycardia, in words: in vivo, Table 3, both tests. As for the experimental part:
Eight- to eleven-weeks-old Sprague-Dawley strain rats (300-400 g) were anesthetized with urethane (750 mg/kg, i.p.) and α-chloralose (37.5 mg/kg, i.p.). The bronchus of each rat was intubated, and the right jugular vein was cannulated for drug administration. […] After stable airway resistance increase induced by intravenous administration of acetylcholine (50 μg/kg) was observed, a test compound was administered intravenously. After 5 minutes, once again the airway resistance increase was induced with acetylcholine. The inhibition ratio of the tested compound on the airway resistance increase before administration of the test compound was calculated, and the dose of the test compound which inhibited the airway resistance obtained before the drug administration by 50% was recorded as ID50 value.

Assay [8] deals with T6, muscarinic M3 receptor (Rattus norvegicus, UniProt P08483).
T6 construct: the membrane preparations of the lacrimal glands were used as the test specimens; from tissue; host or cells: rat lacrimal gland membranes (male SD rats)
T6 sequence (P08483 whole entry): as above
The experiment in a line: Inhibition of M3 muscarinic receptor binding ([3H]-N-methylscopolamine, lacrimal gland membrane). To be noted: for Ki: rat lacrimal gland membrane, 0.02 nM [3H]-N-methylscopolamine; for M1 / M3 / M2 / M3: ratio of binding Ki. As to the method: as §1
(§2) Namely, a cerebral cortex membrane preparation, 1 nM [^3 H]-telenzepine ([^3 H]-Telenzepine, 85 Ci/mmol, New England Nuclear) and a test compound were incubated in 0.5 ml of tris buffer at room temperature (about 20-25° C.) for 120 minutes. Into the incubated system, 0.5 ml of ice-cooled tris buffer was added and suction-filtered with a glass filter (Packard Unifilter Plate GF/C). The filter was washed 4 times each with 1 ml of ice-cooled tris buffer. After drying the filter at 50° C. for an hour, a scintillator (Microscinti O: Packard Instrument Co., Inc.) was added and the radioactivity of the [^3 H]-telenzepine which was adsorbed onto the filter was measured with a microplate scintillation counter (Top Count: Packard Instrument Co., Inc.). Non-specific binding of [^3 H]-telenzepine to the receptors was determined under addition of 10 μM pirenzepine.
The test was conducted in the manner similar to above 2) M1 muscarinic receptor binding inhibition test, except that the membrane preparations of the lacrimal glands were used as the test specimens and 0.02 nM [^3 H]-N-methylscopolamine was used as the labelling ligand. Non-specific binding of [^3 H]-N-methylscopolamine to the receptor was determined under addition of 1 μM N-methylscopolamine.

Assay [9] has as its target T7, muscarinic M1 receptor (Rattus norvegicus, UniProt P08482).
T7 construct: a cerebral cortex membrane preparation, 1 nM; from tissue; host or cells: rat cerebral cortex membranes (male SD rats)
T7 sequence (P08482 1-460): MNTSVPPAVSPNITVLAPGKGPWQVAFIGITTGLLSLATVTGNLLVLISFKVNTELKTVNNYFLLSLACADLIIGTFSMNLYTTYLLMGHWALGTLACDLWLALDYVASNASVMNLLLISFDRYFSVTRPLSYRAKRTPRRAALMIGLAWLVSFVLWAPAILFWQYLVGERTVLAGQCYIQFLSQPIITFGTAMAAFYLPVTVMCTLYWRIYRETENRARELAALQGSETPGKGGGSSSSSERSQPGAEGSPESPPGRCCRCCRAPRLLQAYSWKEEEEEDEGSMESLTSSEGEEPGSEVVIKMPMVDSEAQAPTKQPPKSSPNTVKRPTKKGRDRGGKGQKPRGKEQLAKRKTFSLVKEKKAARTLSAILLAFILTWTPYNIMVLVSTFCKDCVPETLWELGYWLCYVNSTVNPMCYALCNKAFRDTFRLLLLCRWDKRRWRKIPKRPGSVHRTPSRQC
In words: Inhibition of M1 muscarinic receptor binding ([3H]-telenzepine, cerebral cortex membrane). To be noted: 1 nM [3H]-telenzepine. As to the method: as §1, §2

T3 sequence (P08483 whole entry): as the sequence (P08483 whole entry) above
T5 sequence (P08483 whole entry): as the sequence (P08483 whole entry) above

`Cc1cccc(CN2CCC(NC(=O)[C@](O)(c3ccccc3)C3CCCC3)CC2)n1.Cl.Cl` [Example 1, (2R)-N-[1-(6-methyl-2-pyridylmethyl)piperidin-4-yl]-2-cyclopentyl-2-hydroxy-2-phenylacetamide dihydrochloride]: the figures for the Ki in assay [1] and in assay [8] were 1100 nM and 2.9 nM, respectively. The Kb in assay [2] is 3.6 nM; in [3], 70 nM; in [4] it was 1100 nM; in assay [6], 4.4 nM. In addition, the ED50 in assay [5] was > 3000 µg/kg; in assay [7], 37 µg/kg.
In assay [1], `COc1ccnc(CN2CCC(NC(=O)C(O)(c3ccccc3)C3CCCC3)CC2)c1` (stereo not shown) [Example 9, N-[1-(4-methoxy-2-pyridylmethyl)piperidin-4-yl]-2-cyclopentyl-2-hydroxy-2-phenylacetamide] displayed a Ki of 1300 nM. Further, affinity in assay [9] was put at a Ki of 29 nM. For the same molecule, in assay [8], the affinity corresponds to a Ki of 9.4 nM, the “M1 / M3” value amounted to 3.1 and the “M2 / M3” value is 140.
For `O=C(NC1CCN(Cc2cccc(Cl)n2)CC1)C(O)(c1ccccc1)C1CCCC1` (stereo not shown) [Example 10, N-[1-(6-chloro-2-pyridylmethyl)piperidin-4-yl]-2-cyclopentyl-2-hydroxy-2-phenylacetamide], the Ki in assay [1] is 1300 nM. Affinity in assay [9] was put at a Ki of 16 nM. Besides, in assay [8], the Ki was found to be 7.6 nM, the “M1 / M3” value is reported as 2.1 and the “M2 / M3” value turned out to be 170.
On the same counts, the results for `O=C(NC1CCN(Cc2cc(Cl)ccn2)CC1)C(O)(c1ccccc1)C1CCCC1` (stereo not shown) [Example 11, N-[1-(4-chloro-2-pyridylmethyl)piperidin-4-yl]-2-cylopentyl-2-hydroxy-2-phenylacetamide] are 730 nM, 11 nM, 8.8 nM, 1.3 and 83.
`CN1[C@@H]2CC[C@H]1C[C@@H](OC(=O)C(CO)c1ccccc1)C2` (stereo partly shown) [atropine]: in [5], the “selectivity of bronchodilation over bradycardiac response, in words” value is listed as “non-selective” and the ED50 is 3.7 µg/kg. Moreover, in assay [7], the “activities in both airway constriction and bradycardia, in words” value is reported as “potent activities in both cases”; the ED50 was 4.3 µg/kg.
The matching figures for `CC(C)[N+]1(C)[C@@H]2CC[C@H]1C[C@@H](OC(=O)C(CO)c1ccccc1)C2` (stereo partly shown) [ipratropium]: “non-selective”, 1.8 µg/kg, “potent activities in both cases” and 1.5 µg/kg.
